# Measurements as given in patent US20090291964A1, “Potentiators of Antibacterial Activity” (priority 2003, published 2009).
# Assays:
# Assay type in all cases: cell-based
# E. faecalis ATCC 29212 [1] = assay: MIC by NCCLS microdilution, EtBr/EPI with and without EPI
# Description: (§1) 3% sterile laked horse blood (Quad Five, Ryegate, Mont.) was added to assays for E. faecalis and S. Pneumoniae. A final concentration of 1% DMSO was present in all assays.
# (§2) EtBr is a general substrate for many different efflux pumps in bacteria. Markham et al., “Multiple Novel Inhibitors of the NorA Multidrug Transporter of Staphylococcus aureus”, Antimicrob. Agents Chemother. 43:2404-2408 (1999). Since EtBr is a non-specific DNA intercalator, the only known mechanism of resistance to EtBr is via efflux. Markham et al., “Multiple Novel Inhibitors of the NorA Multidrug Transporter of Staphylococcus aureus”, Antimicrob. Agents Chemother. 43:2404-2408 (1999).
# S. pneumoniae ATCC 10015 [2] = assay: as above
# Description: as §1, §2
# [3] = tested on: S. aureus SA-K2068 (non-NorA multidrug efflux pump overproducing); assay: microbe, parasite or virus in culture
# Description: (§3) A variety of strains may be used in these experiments, including, but not limited to, S. aureus ATCC 29213, E. faecalis ATCC 29212, and S. pneumoniae, S. aureus strains SA-1199, SA-1199B, SA-8325-4, and SA-K2068. S. aureus ATCC 29213, E. faecalis ATCC 29212, and S. pneumoniae ATCC 10015 were obtained from the American Type Culture Collection (Manassas, Va.). S. aureus strains SA-1199 (clinical isolate, susceptible), SA-1199B (SA-1199, NorA overproducing, also has A116E GrlA mutation), SA-8325-4 (NCTC 8325 cured of prophages), SA-K2068 (SA-8325-4, non-NorA multidrug efflux pump overproducing mutation) were obtained from Glenn Kaatz (Kaatz et al., “Identification and characterization of a novel efflux-related multidrug resistance phenotype in Staphylococcus aureus”, J. Antimicrob. Chemother. 50:833-838 (2002); 1993; Kaatz et al., “Phenothiazines and thioxanthenes inhibit multidrug efflux pump activity in Staphylococcus aureus”, Antimicrob. Agents Chemother. 47:719-726, Kaatz et al., “Efflux-mediated fluoroquinolone resistance in Staphylococcus aureus. Antimicrob. Agents Chemother.”, 37:1086-1094, 1993)).
# as §1
# Recent more hydrophobic fluoroquinolones such as gatifloxacin and moxifloxacin are less well recognized by NorA; however, recently one other pump in S. aureus has been described which also recognizes hydrophobic fluoroquinolones (Kaatz et al. 2002, supra). To investigate the potential of A-106 and C-9 to block the efflux of several fluoroquinolones in cells with constituitively over-expressed efflux pumps, we used S. aureus strains SA-1199B and K2068 (Table 3). […] Kaatz et al., “Phenothiazines and thioxanthenes inhibit multidrug efflux pump activity in Staphylococcus aureus”, Antimicrob. Agents Chemother. 47:719-726 (2003).
# S. aureus SA-8325-4 = assay: MIC of fluoroquinolones with and without EPI; settings: S. aureus SA-8325-4; EPI at 4X the MEC for EtBr, VX-710 at 100 μg/ml
# Description: as §3, §1
# [4] = tested on: S. aureus SA-1199 (clinical isolate, susceptible); assay: MIC of fluoroquinolones with and without EPI; settings: S. aureus SA-1199; EPI at 4X the MEC for EtBr, VX-710 at 100 μg/ml
# Description: as §3, §1
# S. aureus ATCC 29213 [5] = assay: Minimal effective concentration (MEC) of EPI for gatifloxacin; settings: lowest amount of EPI which produces the maximum effect on the MIC of gatifloxacin
# Description: (§4) The MEC was determined as the minimal concentration of EPI that produced the maximal reduction in substrate MIC.
# Since any given compound may be recognized by an unknown number of efflux pumps in a particular organism, we reasoned that the MEC of A-106 and C-9 should vary for different antibiotics. Also, the MEC of A-106 and C-9 should vary with the degree of efflux expression in a given strain. […] This was confirmed with two other wild type strains, SA-8325-4 and SA-1199 (Table 3).
# E. faecalis ATCC 29212 [6] = assay: Minimal effective concentration (MEC) of EPI for EtBr; settings: lowest amount of EPI which produces the maximum effect on the MIC of ethidium bromide
# Description: as §4
# (§5) The minimum effective concentration (MEC) for inhibition of EtBr efflux was determined in S. aureus, E. faecalis and S. pneumoniae for A-106 and C-9; reserpine was used as a comparator (Table 1).
# S. aureus ATCC 29213 [7] = assay: as above
# Description: as §4, §5
# S. pneumoniae ATCC 10015 [8] = assay: as above; settings: lowest amount of EPI which produces the maximum effect on the MIC of ethidium bromide (reserpine: maximal subinhibitory concentration)
# Description: as §4, §5
# [9] = E. faecalis ATCC 29212, EPIs used at the MEC, except VX-710 at 100 μg/ml
# [10] = S. pneumoniae ATCC 10015, EPIs used at the MEC, except VX-710 at 100 μg/ml
# [11] = K2068, EPIs at 4 times MEC for EtBr, A-106 at 100 μg/ml
# [12] = S. aureus K2068, EPI at 4X the MEC for EtBr, VX-710 at 100 μg/ml
structure (smiles),measurement,setting,value
COc1cc(C(=O)C(=O)N2CCCC[C@H]2C(=O)OC(CCCc2cccnc2)CCCc2cccnc2)cc(OC)c1OC [A-106],MIC of EPI,"E. faecalis ATCC 29212 [1]; E. faecalis ATCC 29212, EPI alone",>100 µg/mL
same,Fold-reduction in EtBr MIC,E. faecalis ATCC 29212 [1]; [9],8
same,MIC of EtBr with EPI,E. faecalis ATCC 29212 [1]; [9],0.8 µg/mL
same,intrinsic antibacterial activity of EPI,"E. faecalis ATCC 29212 [1]; at 100 μg/ml, E. faecalis",no intrinsic antibacterial activity
same,MIC of EPI,"S. pneumoniae ATCC 10015 [2]; S. pneumoniae ATCC 10015, EPI alone",>100 µg/mL
same,Fold-reduction in EtBr MIC,S. pneumoniae ATCC 10015 [2]; [10],≧16
same,MIC of EtBr with EPI,S. pneumoniae ATCC 10015 [2]; [10],≦0.125 μg/ml
same,intrinsic antibacterial activity of EPI,"S. pneumoniae ATCC 10015 [2]; at 100 μg/ml, S. pneumoniae",no intrinsic antibacterial activity
same,reduction of MIC of ciprofloxacin,[3]; [11],4 fold
same,reduction of MIC of gatifloxacin,[3]; [11],2 fold
same,reduction of MIC of levofloxacin,[3]; [11],2 fold
same,reduction of MIC of norfloxacin,[3]; [11],2 fold
same,MIC of gatifloxacin with EPI,[3]; S. aureus K2068 (nonNorA pump overproducer) (Table 4),0.25 µg/mL
same,MIC of EtBr with EPI,[3]; [12],0.4 µg/mL
same,MIC of ciprofloxacin with EPI,[3]; [12],0.5 µg/mL
same,MIC of gatifloxacin with EPI,[3]; [12],0.25 µg/mL
same,MIC of gentamicin with EPI,[3]; [12],0.063 µg/mL
same,MIC of levofloxacin with EPI,[3]; [12],0.5 µg/mL
same,MIC of norfloxacin with EPI,[3]; [12],1 µg/mL
same,Fold-reduction in MIC,"[3]; gatifloxacin, S. aureus K2068 (nonNorA pump overproducer)",4
same,MIC of EtBr with EPI,S. aureus SA-8325-4,<0.1 µg/mL
same,MIC of ciprofloxacin with EPI,S. aureus SA-8325-4,0.125 µg/mL
same,MIC of gatifloxacin with EPI,S. aureus SA-8325-4,0.125 µg/mL
same,MIC of gentamicin with EPI,S. aureus SA-8325-4,0.063 µg/mL
same,MIC of levofloxacin with EPI,S. aureus SA-8325-4,0.25 µg/mL
same,MIC of norfloxacin with EPI,S. aureus SA-8325-4,0.25 µg/mL
same,MIC of EtBr with EPI,[4],0.2 µg/mL
same,MIC of ciprofloxacin with EPI,[4],0.063 µg/mL
same,MIC of gatifloxacin with EPI,[4],0.063 µg/mL
same,MIC of gentamicin with EPI,[4],0.125 µg/mL
same,MIC of levofloxacin with EPI,[4],0.125 µg/mL
same,MIC of norfloxacin with EPI,[4],0.125 µg/mL
same,MEC,S. aureus ATCC 29213 [5],>100 µg/mL
same,MEC of EPI,E. faecalis ATCC 29212 [6],≧100 μg/ml
same,MEC for EtBr efflux,"S. aureus ATCC 29213 [7]; ATCC 29213, Table 1",≤ 100 µg/mL
same,MEC of EPI,"S. aureus ATCC 29213 [7]; S. aureus ATCC 29213, lowest amount of EPI which produces the maximum effect on the MIC of ethidium bromide",≧100 μg/ml
same,MEC of EPI,S. pneumoniae ATCC 10015 [8],≧100 μg/ml
